# Source: ChEMBL document CHEMBL3414454, “Designing and exploring active N'-[(5-nitrofuran-2-yl) methylene] substituted hydrazides against three Trypanosoma cruzi strains more prevalent in Chagas disease patients” (Eur J Med Chem, 2015)
# Columns and labels:
# [1] = Selectivity index, ratio of IC50 for human LL24 cells to IC50 for Trypanosoma cruzi Y epimastigote forms; type: toxicity, cell-based; details: read-out: Ratio IC50
# [2] = Selectivity index, ratio of IC50 for human LL24 cells to IC50 for Trypanosoma cruzi Bug 2149 cl10; type: toxicity, cell-based; details: read-out: Ratio IC50
# [3] = Selectivity index, ratio of IC50 for human LL24 cells to IC50 for Trypanosoma cruzi Silvio X10 cl1 epimastigote forms; type: toxicity, cell-based; details: read-out: Ratio IC50
# [4] = test system: Trypanosoma cruzi; test: Anti-trypanosomal activity against Trypanosoma cruzi Silvio X10 cl1 epimastigote forms assessed as inhibition of parasite growth after 72 hrs by microplate reader based assay; type: functional, organism-based; details: for IC50: Trypanosoma cruzi, Silvio X10 cl1, 72 h
# [5] = test system: Trypanosoma cruzi; test: Anti-trypanosomal activity against Trypanosoma cruzi Bug 2149 cl10 epimastigote forms assessed as inhibition of parasite growth after 72 hrs by microplate reader based assay; type: functional, organism-based; details: for IC50: Trypanosoma cruzi, Bug 2149 cl10, CL1-0, 72 h
# [6] = Cytotoxicity against human LL24 cells assessed as inhibition of cell growth after 24 hrs by MTT assay; type: cell-based; details: LL24, 24 h
# [7] = test system: Trypanosoma cruzi; test: Anti-trypanosomal activity against Trypanosoma cruzi Y epimastigote forms assessed as inhibition of parasite growth after 72 hrs by microplate reader based assay; type: functional, organism-based; details: for IC50: Trypanosoma cruzi, Y, 72 h
SMILES,log1/IC50 [4],IC50 [4],log1/IC50 [5],IC50 [5],log1/IC50 [7],IC50 [7],selectivity ratio [1],selectivity ratio [2],selectivity ratio [3],IC50 [6]
O=C(N/N=C/c1ccc([N+](=O)[O-])o1)C1CCCCC1,4.86,13.7 µM,4.89,12.8 µM,4.84,14.4 µM,> 14,> 16,> 15,> 200 µM
CCCCCCCC(=O)N/N=C/c1ccc([N+](=O)[O-])o1,4.83,14.7 µM,4.84,14.4 µM,4.87,13.5 µM,7,6,6,91 µM
N#Cc1ccc(C(=O)N/N=C/c2ccc([N+](=O)[O-])o2)cc1,4.43,37.4 µM,4.6,25.3 µM,4.64,23.1 µM,> 9,> 8,> 5,> 200 µM
O=C(N/N=C/c1ccc([N+](=O)[O-])o1)C1CCCC1,4.7,19.9 µM,4.84,14.6 µM,4.93,11.9 µM,5,4,3,58 µM
CCCc1ccc(C(=O)N/N=C/c2ccc([N+](=O)[O-])o2)cc1,4.99,10.3 µM,5.01,9.8 µM,5.04,9.09 µM,10,9,9,89 µM
CCCOc1ccc(C(=O)N/N=C/c2ccc([N+](=O)[O-])o2)cc1,4.89,12.8 µM,5.01,9.72 µM,5.13,7.33 µM,> 27,> 21,> 16,> 200 µM
O=C(Cc1ccccc1)N/N=C/c1ccc([N+](=O)[O-])o1,4.69,20.2 µM,4.91,12.3 µM,4.96,11 µM,8.83,7.91,4.79,97 µM
CC(C)c1ccc(C(=O)N/N=C/c2ccc([N+](=O)[O-])o2)cc1,5.22,6.09 µM,5.04,9.04 µM,5.41,3.91 µM,> 51,> 22,> 33,> 200 µM
CCCCNc1ccc(C(=O)N/N=C/c2ccc([N+](=O)[O-])o2)cc1,5.36,4.34 µM,5.37,4.22 µM,5.51,3.39 µM,14,11,11,47 µM
O=C(N/N=C/c1ccc([N+](=O)[O-])o1)c1ccccc1Oc1ccccc1,4.91,12.3 µM,4.91,12.2 µM,5.11,7.79 µM,> 26,> 16,> 16,> 200 µM
O=C(N/N=C/c1ccc([N+](=O)[O-])o1)c1ccccc1,4.51,31.1 µM,4.85,14.2 µM,4.9,12.6 µM,14,12.5,5.72,178 µM
O=C(Cn1ccnc1[N+](=O)[O-])NCc1ccccc1 [BENZNIDAZOLE],,,,,,40.4 µM,,,,> 200 µM

# Further compounds by falling IC50 [5], results first:
log1/IC50 [4],IC50 [4],log1/IC50 [5],IC50 [5],log1/IC50 [7],IC50 [7],SMILES,selectivity ratio [1],selectivity ratio [2],selectivity ratio [3],IC50 [6]
,,3.52,300 µM,3.52,300 µM,O=C(N/N=C/c1ccc([N+](=O)[O-])o1)c1ccc(O)cc1 [NIFUROXAZIDE],> 1,> 1,,> 200 µM
4,100 µM,4.33,47.3 µM,4,100 µM,CN(C)c1ccc(C(=O)N/N=C/c2ccc([N+](=O)[O-])o2)cc1,> 2,> 4,> 2,> 200 µM
4.56,27.7 µM,4.61,24.8 µM,5,9.89 µM,Cc1cccc(C(=O)N/N=C/c2ccc([N+](=O)[O-])o2)c1,> 20,> 8,> 7,> 200 µM
4.57,27.1 µM,4.8,15.8 µM,4.86,13.7 µM,CC(=O)N/N=C/c1ccc([N+](=O)[O-])o1 [NIHYDRAZONE],> 15,> 13,> 7,> 200 µM
4.7,20 µM,4.84,14.5 µM,5.04,9.15 µM,O=C(N/N=C/c1ccc([N+](=O)[O-])o1)c1ccc(Cl)cc1,20.4,12.9,9.36,187 µM
4.86,13.7 µM,4.86,13.7 µM,5.03,9.43 µM,CC(C)(C)c1ccc(C(=O)N/N=C/c2ccc([N+](=O)[O-])o2)cc1,> 21,> 15,> 15,> 200 µM
4.86,13.8 µM,4.91,12.2 µM,5.03,9.41 µM,CC(C)(C)OC(=O)N/N=C/c1ccc([N+](=O)[O-])o1,> 21,> 16,> 14,> 200 µM
5.01,9.72 µM,4.91,12.2 µM,4.99,10.2 µM,CCCCCC(=O)N/N=C/c1ccc([N+](=O)[O-])o1,10,8,10,99 µM
5.22,,5.14,7.32 µM,4.89,12.8 µM,CC1CS(=O)(=O)CCN1/N=C/c1ccc([N+](=O)[O-])o1 (stereo not drawn) [NIFURTIMOX],> 16,> 27,> 33,> 200 µM
5.32,4.75 µM,5.36,4.41 µM,5.51,3.1 µM,CCCCc1ccc(C(=O)N/N=C/c2ccc([N+](=O)[O-])o2)cc1,> 64,> 45,> 42,> 200 µM
5.29,5.07 µM,5.37,4.25 µM,5.46,3.47 µM,CCCCOc1ccc(C(=O)N/N=C/c2ccc([N+](=O)[O-])o2)cc1,> 58,> 47,> 39,> 200 µM
5.5,3.17 µM,5.74,1.81 µM,5.93,1.17 µM,O=C(N/N=C/c1ccc([N+](=O)[O-])o1)c1ccc(-c2ccccc2)cc1,> 176,> 110,> 63,> 200 µM
